≈ marks a conversion by molar mass, not a printed value.
Experiments:
Helicobacter pylori [1] = assay: Antimicrobial activity against Helicobacter pylori isolated from gastrointestinal disease patient after 72 hrs by Etest method; type: functional
Helicobacter pylori [2] = assay: Antimicrobial activity against Helicobacter pylori; type: functional
[3] = Binding affinity to Helicobacter pylori transglycosylase

Compound | MIC90 (Helicobacter pylori [1]) [mg/L] | MIC (Helicobacter pylori [2]) [µM] | Kd [3] [µM]
CC[C@H]1OC(=O)[C@H](C)[C@@H](O[C@H]2C[C@@](C)(OC)[C@@H](O)[C@H](C)O2)[C@H](C)[C@@H](O[C@@H]2O[C@H](C)C[C@H](N(C)C)[C@H]2O)[C@](C)(OC)C[C@@H](C)C(=O)[C@H](C)[C@@H](O)[C@]1(C)O [CLARITHROMYCIN] | 8 (≈ 10.7 µM) | – | –
C[C@H]1COc2c(N3CCN(C)CC3)c(F)cc3c(=O)c(C(=O)O)cn1c23.C[C@H]1COc2c(N3CCN(C)CC3)c(F)cc3c(=O)c(C(=O)O)cn1c23.O [LEVOFLOXACIN] | 1 | – | –
Cc1ncc([N+](=O)[O-])n1CCO [METRONIDAZOLE] | 16 (≈ 93.5 µM) | – | –
C=C(C/C=C(\C)CCC=C(C)C)CCC(C)(C)/C=C/CC/C(C)=C/CO[C@@H](COP(=O)(O)O[C@H]1O[C@H](C(N)=O)[C@@](C)(O)[C@H](OC(N)=O)[C@H]1O[C@@H]1O[C@H](CO[C@@H]2O[C@H](CO)[C@@H](O)[C@H](O)[C@H]2O)[C@@H](O[C@@H]2O[C@H](C)[C@@H](O[C@@H]3O[C@H](C(=O)NC4=C(O)CCC4=O)[C@H](O)[C@H](O)[C@H]3O)[C@H](O)[C@H]2NC(C)=O)[C@H](O)[C@H]1NC(C)=O)C(=O)O [MOENOMYCIN A] | 2 (≈ 1.26 µM) | 1.3 (≈ 2.06 µg/mL) | 0.025
CN(C)[C@@H]1C(O)=C(C(N)=O)C(=O)[C@@]2(O)C(O)=C3C(=O)c4c(O)cccc4[C@@](C)(O)[C@H]3C[C@@H]12 [TETRACYCLINE] | 0.5 (≈ 1.13 µM) | – | –
